Results on one compound are retold here after patent US20030215564A1, “Method and apparatus for coating an endoprosthesis” (priority 2002, published 2003).

Common to all, as to assay type: physicochemical
Series [1] in a line: Amount of paclitaxel deposited on Palmaz-Schatz stents, manual coating method (HPLC). As to the method:
In this example, Palmaz-Schatz stents were coated with paclitaxel using a manual method. The amount of paclitaxel deposited was then determined.
Each stent was then removed from the reservoir, shaken briskly, and allowed to dry. […] The solvent system consisted of 45% acetonitrile and 55% water delivered by a pair of Gilson 305/306 pumps with a flow rate of 1.5 ml/minute.

Series [2] in a line: Effect of stent expansion on paclitaxel content of spin-coated stents (HPLC). The conditions noted are these: spin-coated 12,000 RPM two seconds, 44 mg/ml ethanolic paclitaxel. An excerpt:
After a stent is crimped onto a catheter as in example 4, it is ready for deployment in the body. The stent is properly positioned with a catheter, and is then expanded, for example by inflation of a balloon tip around which the stent is mounted. The balloon inflation expands the stent and forces it into proper position in the wall of the hollow organ. This has an additional physical impact on the stent, and has the potential to further degrade its coating.

Series [3] can be described thus: Effect of crimping on amount of paclitaxel on spin-coated stents (HPLC). The source says:
Each stent was then removed from the reservoir, shaken briskly, and allowed to dry.

The nature of series [4]: Effect of crimping on amount of paclitaxel on manually coated stents (HPLC). The conditions noted are these: manual coating, after crimping. The source says: Prior to being deployed inside a blood vessel, some vascular stents must be crimped onto a balloon-tipped catheter. Once the stent is positioned on the catheter, the catheter-stent assembly is advanced in the blood vessel to the site of obstruction. The balloon is then expanded, which deploys the stent in its proper position.
Since the manual coating method leads to uneven, fragile coating (see Examples 1-3), it seemed likely that the process of crimping would exacerbate the problem of flaking and drug loss. To demontstrate this problem, the amount of paclitaxel on stents before and after crimping was determined. […] Each stent was then removed from the reservoir, shaken briskly, and allowed to dry.

Regarding `CC(=O)O[C@H]1C(=O)[C@@]2(C)[C@H]([C@H](OC(=O)c3ccccc3)[C@]3(O)C[C@H](OC(=O)[C@H](O)[C@@H](NC(=O)c4ccccc4)c4ccccc4)C(C)=C1C3(C)C)[C@]1(OC(C)=O)CO[C@@H]1C[C@@H]2O` [Paclitaxel, paclitaxel], the “Amount of drug deposited (mean ± standard deviation)” value in series [1] (paclitaxel 13 mg/ml in 95% ethanol) is 19.5 ± 7.7 µg; in series [1] (paclitaxel 27 mg/ml in 95% ethanol) it was 59.8 ± 17.6 µg; in series [1] (paclitaxel 37 mg/ml in 95% ethanol) it was 80.4 ± 27.7 µg; in series [1] (paclitaxel 42 mg/ml in 95% ethanol), 141.3 ± 43.0 µg; in series [1] (paclitaxel 66 mg/ml in 95% ethanol), 198.3 ± 72.0 µg. Further, in series [2] (crimp-mounted, expanded in water), the “paclitaxel amount, expanded stent” value is 26.9 µg. Further, in series [2] (unexpanded), the “mean paclitaxel amount, unexpanded stents” value is given as 32.8±5.9 μg/stent. Moreover, the “Amount of drug—crimped (mean ± standard deviation)” value came out at 6.4 ± 2.1 µg in series [3] (paclitaxel 18 mg/ml); 12.6 ± 1.2 µg in series [3] (paclitaxel 28 mg/ml); 57.9 ± 33.0 µg in series [4] (paclitaxel 37 mg/ml); 127.1 ± 34.6 µg in series [4] (paclitaxel 42 mg/ml); 106.3 ± 53.8 µg in series [4] (paclitaxel 66 mg/ml).
